# Measurements taken from patent US8163763B2, “Pyrimidine compounds, compositions and methods of use” (Genentech, Inc., priority 2008, dated 2012).
# Target: mTOR kinase (purified recombinant mTOR(1360-2549)+GBL) (Homo sapiens, UniProt P42345)
# Test: In vitro mTOR kinase assay (TR-FRET)
# Type: biochemical
# Settings: class of Ki in the mTOR kinase assay; read-out: mTOR Activity Level
# From the text: a. In vitro mTOR Kinase Assay
# The reaction is stopped by an addition of a Terbium-labeled phospho-specific antibody, e.g., Tb-labeled anti-p4E-BP1 T37/T46, (Invitrogen, product #PR8835A), EDTA, and TR-FRET buffer solution (Invitrogen, Product #PR3756B). Product formation is detected by way of time-resolved fluorescence resonance energy transfer (TR-FRET), which occurs when the phosphorylated substrate and labeled antibody are in close proximity due to phospho-specific binding. Enzymatic activity is measured as an increase in TR-FRET signal using a Perkin Elmer Envision plate reader.
# Compound activity is tested in 10 point dose curves starting at the highest final concentration of 10 uM. They are serially diluted in 100% DMSO prior to further dilution with assay buffer. […] 8 μL of solution containing 2 nM Tb-anti-p4E-BP1 antibody & 10 mM EDTA diluted TR-FRET buffer is then added and incubated for 30 minutes to stop the reaction. The plate is scanned with the Envision plate reader. Ki values are calculated in Assay Explorer using the Morrison ATP-competitive tight binding equation for Ki apparent determination.
# Chain of mTOR kinase (purified recombinant mTOR(1360-2549)+GBL) (P42345 1360-2549): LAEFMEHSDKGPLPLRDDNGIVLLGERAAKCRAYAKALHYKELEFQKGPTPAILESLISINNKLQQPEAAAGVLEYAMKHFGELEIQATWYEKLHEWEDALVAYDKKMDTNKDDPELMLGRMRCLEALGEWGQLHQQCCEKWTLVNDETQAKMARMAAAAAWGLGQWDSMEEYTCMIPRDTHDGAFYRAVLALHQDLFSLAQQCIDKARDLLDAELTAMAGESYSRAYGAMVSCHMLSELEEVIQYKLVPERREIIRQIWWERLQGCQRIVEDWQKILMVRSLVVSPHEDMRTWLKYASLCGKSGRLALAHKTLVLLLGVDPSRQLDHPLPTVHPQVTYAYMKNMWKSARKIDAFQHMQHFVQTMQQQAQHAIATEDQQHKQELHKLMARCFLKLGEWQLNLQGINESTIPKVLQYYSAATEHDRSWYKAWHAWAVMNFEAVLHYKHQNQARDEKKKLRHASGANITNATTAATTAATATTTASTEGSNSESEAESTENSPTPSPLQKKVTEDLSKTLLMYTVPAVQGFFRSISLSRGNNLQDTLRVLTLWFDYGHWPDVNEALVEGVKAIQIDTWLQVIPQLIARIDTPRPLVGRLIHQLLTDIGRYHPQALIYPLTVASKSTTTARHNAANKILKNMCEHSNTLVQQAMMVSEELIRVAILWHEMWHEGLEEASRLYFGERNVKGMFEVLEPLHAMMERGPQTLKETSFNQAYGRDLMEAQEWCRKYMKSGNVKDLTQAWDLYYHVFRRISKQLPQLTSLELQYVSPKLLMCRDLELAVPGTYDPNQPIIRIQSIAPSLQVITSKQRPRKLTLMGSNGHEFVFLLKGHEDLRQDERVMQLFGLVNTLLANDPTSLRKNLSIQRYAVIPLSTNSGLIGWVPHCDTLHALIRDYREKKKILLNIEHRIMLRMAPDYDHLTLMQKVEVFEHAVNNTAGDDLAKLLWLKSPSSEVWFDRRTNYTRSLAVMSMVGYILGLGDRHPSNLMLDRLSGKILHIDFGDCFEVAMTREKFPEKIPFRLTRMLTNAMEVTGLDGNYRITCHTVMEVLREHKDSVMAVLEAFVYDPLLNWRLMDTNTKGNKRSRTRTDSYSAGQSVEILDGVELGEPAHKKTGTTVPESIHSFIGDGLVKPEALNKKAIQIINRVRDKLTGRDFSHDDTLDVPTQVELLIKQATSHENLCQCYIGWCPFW
# Chain of mTOR kinase (purified recombinant mTOR(1360-2549)+GBL) (Q9BVC4 whole entry partner): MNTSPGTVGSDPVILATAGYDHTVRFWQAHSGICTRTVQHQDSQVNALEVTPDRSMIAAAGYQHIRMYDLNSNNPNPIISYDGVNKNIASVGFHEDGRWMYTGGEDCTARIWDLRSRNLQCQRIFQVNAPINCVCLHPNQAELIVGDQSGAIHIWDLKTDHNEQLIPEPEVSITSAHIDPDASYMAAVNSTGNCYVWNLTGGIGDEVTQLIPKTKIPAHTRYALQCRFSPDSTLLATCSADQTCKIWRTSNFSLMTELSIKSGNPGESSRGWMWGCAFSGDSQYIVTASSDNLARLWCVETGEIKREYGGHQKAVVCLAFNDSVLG
row,Structure (SMILES),Ki [nM]
1,CCNC(=O)Nc1ccc(-c2nc3c(c(N4CCOCC4)n2)CN(c2ccnc(N)n2)C3)cc1,< 100
2,CCNC(=O)Nc1ccc(-c2nc3c(c(N4CCOCC4)n2)CN(C(=O)OCc2ccccc2)C3)cc1,< 100
3,CCNC(=O)Nc1ccc(-c2nc3c(c(N4CCOCC4)n2)CN(C(=O)OCC)C3)cc1,< 100
4,CCNC(=O)Nc1ccc(-c2nc3c(c(N4CCOCC4)n2)CN(c2ccnc(N)n2)CC3)cc1,< 100
5,CCNC(=O)Nc1ccc(-c2nc3c(c(N4CCOCC4)n2)CN(C(=O)c2ccccn2)CC3)cc1,< 100
6,CCNC(=O)Nc1ccc(-c2nc3c(c(N4CCOCC4)n2)CCN(c2ncccn2)C3)cc1,< 100
7,CCNC(=O)Nc1ccc(-c2nc3c(c(N4CCOCC4)n2)CCN(c2ccnc(N)n2)C3)cc1,< 100
8,CCNC(=O)Nc1ccc(-c2nc3c(c(N4CCOCC4)n2)CN(Cc2ccc(O)cc2)C3)cc1,< 100
9,CCNC(=O)Nc1ccc(-c2nc3c(c(N4CCOCC4)n2)CN(C2CCN(C(C)=O)CC2)C3)cc1,< 100
10,CCNC(=O)Nc1ccc(-c2nc3c(c(N4CCCOCC4)n2)CN(C(=O)OC(C)(C)C)C3)cc1,< 100
11,CCNC(=O)Nc1ccc(-c2nc3c(c(N4CCCOCC4)n2)CN(S(=O)(=O)c2ccccc2)C3)cc1,< 100
12,CCNC(=O)Nc1ccc(-c2nc3c(c(N4CCCOCC4)n2)CN(S(C)(=O)=O)C3)cc1,< 100
13,CCNC(=O)Nc1ccc(-c2nc3c(c(N4CCCOCC4)n2)CN(c2ncccn2)C3)cc1,< 100
14,CCNC(=O)Nc1ccc(-c2nc3c(c(N4CCOCC4)n2)CCN(C(=O)OCc2ccccc2)C3)cc1,< 100
15,CCNC(=O)Nc1ccc(-c2nc3c(c(N4CCOCC4)n2)CCN(C(=O)c2ccccn2)C3)cc1,< 100
16,CCNC(=O)Nc1ccc(-c2nc3c(c(N4CCOCC4)n2)CCN(C(=O)c2cccnc2)C3)cc1,< 100
17,CCNC(=O)Nc1ccc(-c2nc3c(c(N4CCOCC4)n2)CCN(C(=O)c2ccncc2)C3)cc1,< 100
18,CCNC(=O)Nc1ccc(-c2nc3c(c(N4CCOCC4)n2)CCN(C2CCN(C)CC2)C3)cc1,< 100
19,CCNC(=O)Nc1ccc(-c2nc3c(c(N4CCCOCC4)n2)CCN(C(C)=O)C3)cc1,< 100
20,CCNC(=O)Nc1ccc(-c2nc3c(c(N4CCCOCC4)n2)CCN(C(=O)OCc2ccccc2)C3)cc1,< 100
21,CCNC(=O)Nc1ccc(-c2nc3c(c(N4CCCOCC4)n2)CCN(c2ncccn2)C3)cc1,< 100
22,CCNC(=O)Nc1ccc(-c2nc3c(c(N4CCCOCC4)n2)CN(C2CCN(C(C)=O)CC2)C3)cc1,< 100
23,CC(=O)Nc1ccc(-c2nc3c(c(N4CCOCC4)n2)CN(c2ncccn2)C3)cc1,100 to 5000

row,Structure (SMILES),Ki [nM]
1,CC(=O)Nc1cccc(-c2nc3c(c(N4CCOCC4)n2)CN(c2ncccn2)C3)c1,100 to 5000
2,CN(C)C(=O)Nc1ccc(-c2nc3c(c(N4CCOCC4)n2)CN(c2ncccn2)C3)cc1,100 to 5000
3,CS(=O)(=O)Nc1ccc(-c2nc3c(c(N4CCOCC4)n2)CN(c2ncccn2)C3)cc1,100 to 5000
4,NC(=O)c1ccc(-c2nc3c(c(N4CCOCC4)n2)CN(c2ncccn2)C3)cc1,100 to 5000
5,CCNC(=O)Nc1ccc(-c2nc3c(c(N4CCOC[C@@H]4C)n2)CNCC3)cc1,< 100
6,CCNC(=O)Nc1ccc(-c2nc3c(c(N4CCOC[C@@H]4C)n2)CN(c2ccnc(N)n2)CC3)cc1,< 100
7,CCNC(=O)Nc1ccc(-c2nc3c(c(N4CCOC[C@@H]4C)n2)CCN(C(=O)OC(C)(C)C)C3)cc1,< 100
8,CCNC(=O)Nc1ccc(-c2nc3c(c(N4CCOC[C@@H]4C)n2)CCNC3)cc1,< 100
9,Cc1nnc(-c2ccc(-c3nc4c(c(N5CCOCC5)n3)CCN(c3ncccn3)C4)cc2)o1,100 to 5000
10,c1cnc(N2CCc3c(nc(-c4ccc(-n5cccn5)cc4)nc3N3CCOCC3)C2)nc1,100 to 5000
11,O=c1[nH]c2ccc(-c3nc4c(c(N5CCOCC5)n3)CCN(c3ncccn3)C4)cc2[nH]1,100 to 5000
12,CCCNC(=O)Nc1ccc(-c2nc3c(c(N4CCOCC4)n2)CCN(c2ncccn2)C3)cc1,100 to 5000
13,CC(C)NC(=O)Nc1ccc(-c2nc3c(c(N4CCOCC4)n2)CCN(c2ncccn2)C3)cc1,100 to 5000
14,O=C(NCCO)Nc1ccc(-c2nc3c(c(N4CCOCC4)n2)CCN(c2ncccn2)C3)cc1,100 to 5000
15,O=C(NCC1CC1)Nc1ccc(-c2nc3c(c(N4CCOCC4)n2)CCN(c2ncccn2)C3)cc1,< 100
16,CCNC(=O)Nc1ccc(-c2nc3c(c(N4CCOC[C@@H]4C)n2)CCN(c2ccnc(N)n2)C3)cc1,< 100
17,CCNC(=O)Nc1ccc(-c2nc3c(c(N4CCOCC4)n2)CCN(C(=O)c2cnco2)C3)cc1,< 100
18,CCNC(=O)Nc1ccc(-c2nc3c(c(N4CCOCC4)n2)CCN(C(=O)c2cocn2)C3)cc1,< 100
19,CCNC(=O)Nc1ccc(-c2nc3c(c(N4CCOCC4)n2)CCN(C(=O)c2ccnn2C)C3)cc1,< 100
20,CCNC(=O)Nc1ccc(-c2nc3c(c(N4CCOCC4)n2)CCN(C(=O)[C@H](C)O)C3)cc1,< 100
21,CCNC(=O)Nc1ccc(-c2nc3c(c(N4CCOCC4)n2)CCN(C(=O)c2c(C)oc4ncn(C)c(=O)c24)C3)cc1,< 100
22,CCNC(=O)Nc1ccc(-c2nc3c(c(N4CCOCC4)n2)CCN(C(=O)N2CCOCC2)C3)cc1,< 100
23,O=C(Nc1ccc(-c2nc3c(c(N4CCOCC4)n2)CCN(c2ncccn2)C3)cc1)NC1CC1,< 100

row,Structure (SMILES),Ki [nM]
1,O=C(Nc1ccc(-c2nc3c(c(N4CCOCC4)n2)CCN(c2ncccn2)C3)cc1)NC1CCC1,< 100
2,CCNC(=O)Nc1ccc(-c2nc3c(c(N4CCOCC4)n2)CNCC3)cc1,< 100
3,CCNC(=O)Nc1ccc(-c2nc3c(c(N4CCOCC4)n2)CN(C(=O)c2cccnc2)CC3)cc1,< 100
4,CCNC(=O)Nc1ccc(-c2nc3c(c(N4CCOCC4)n2)CN(C(=O)c2ccncc2)CC3)cc1,< 100
5,Nc1ccc(-c2nc3c(c(N4CCOCC4)n2)CCN(c2ncccn2)C3)cc1,100 to 5000
6,COc1ccc(CN2Cc3c(nc(-c4cnc(N)nc4)nc3N3CCOCC3)C2=O)cc1,100 to 5000
7,CS(=O)(=O)Nc1ccc(-c2nc3c(c(N4CCOCC4)n2)CN(Cc2ccccc2)C3=O)cc1,100 to 5000
8,CNC(=O)Nc1ccc(-c2nc3c(c(N4CCOCC4)n2)CN(Cc2ccc(OC)cc2)C3=O)cc1,< 100
9,CC(=O)Nc1ccc(-c2nc3c(c(N4CCOCC4)n2)CN(Cc2ccccc2)C3=O)cc1,100 to 5000
10,CCNC(=O)Nc1ccc(-c2nc3c(c(N4CCOCC4)n2)CN(C(=O)c2ccccc2Cl)CC3)cc1,< 100
11,CCNC(=O)Nc1ccc(-c2nc3c(c(N4CCOCC4)n2)CN(C(=O)c2ccc(Cl)cc2)CC3)cc1,< 100
12,CCNC(=O)Nc1ccc(-c2nc3c(c(N4CCOCC4)n2)CN(C(=O)/C=C/c2ccccc2)CC3)cc1,< 100
13,CC(C)(C)OC(=O)N1Cc2nc(-c3cnc(N)nc3)nc(N3CCOCC3)c2C1,100 to 5000
14,CCNC(=O)Nc1ccc(-c2nc3c(c(C4CCOCC4)n2)CN(C(=O)OC(C)(C)C)C3)cc1,100 to 5000
15,CCNC(=O)Nc1ccc(-c2nc3c(c(C4=CCOCC4)n2)CCN(c2ncccn2)C3)cc1,100 to 5000
16,CCNC(=O)Nc1ccc(-c2nc3c(c(C4CCOCC4)n2)CCN(c2ncccn2)C3)cc1,100 to 5000
17,CCNC(=O)Nc1ccc(-c2nc3c(c(-c4cccnc4)n2)CCN(Cc2ccccc2)C3)cc1,100 to 5000
18,CCNC(=O)Nc1ccc(-c2nc3c(c(N4CCOCC4)n2)CN(Cc2ccccc2)C3)cc1,< 100
19,CCNC(=O)Nc1ccc(-c2nc3c(c(N4CCOCC4)n2)CN(Cc2cccc(O)c2)C3)cc1 [drawing 553],< 100
20,CCNC(=O)Nc1ccc(-c2nc3c(c(N4CCCOCC4)n2)CN(C(=O)OCc2ccccc2)C3)cc1 [drawing 567],< 100
21,O=C(Nc1ccc(-c2nc3c(c(N4CCOCC4)n2)CN(c2ncccn2)C3)cc1)NC1CCCC1 [drawing 572],< 100
22,c1cnc(N2CCc3c(nc(-c4ccc5[nH]ncc5c4)nc3N3CCOCC3)C2)nc1 [drawing 585],100 to 5000
23,CCNC(=O)Nc1ccc(-c2nc3c(c(N4CCOCC4)n2)CN(C(=O)Cc2ccccc2)CC3)cc1 [drawing 603],< 100

# Same assay, conditions: mTOR kinase assay of Example 496; read-out: Ki
row,Structure (SMILES),Ki [nM]
1,CC(=O)Nc1ccc(-c2nc3c(c(N4CCCOCC4)n2)CN(Cc2ccccc2)C3=O)cc1,252
2,CCNC(=O)Nc1ccc(-c2nc3c(c(N4CCOCC4)n2)CCN2C(=O)N(CC)CC[C@@H]32)cc1,5
3,CCNC(=O)Nc1ccc(-c2nc3c(c(N4CCOC[C@@H]4C)n2)CCN(c2nc(C)cc(C)n2)C3)cc1,4
4,C[C@H]1COCCN1c1nc(-c2ccc(NC(=O)NCC(F)F)cc2)nc2c1CN(C(=O)c1nccs1)CC2,32
5,CC(C)(C)OC(=O)N1Cc2nc(-c3cnc(N)nc3)nc(C3C=COCC3)c2C1 (stereo not shown),753
6,CCNC(=O)Nc1ccc(-c2nc3c(c(N4CCOCC4)n2)CN(Cc2cccc(O)c2)C3)cc1 [drawing 624],9
7,CCNC(=O)Nc1ccc(-c2nc3c(c(N4CCCOCC4)n2)CN(C(=O)OCc2ccccc2)C3)cc1 [drawing 625],2
8,O=C(Nc1ccc(-c2nc3c(c(N4CCOCC4)n2)CN(c2ncccn2)C3)cc1)NC1CCCC1 [drawing 626],41.2
9,c1cnc(N2CCc3c(nc(-c4ccc5[nH]ncc5c4)nc3N3CCOCC3)C2)nc1 [drawing 628],636
10,CCNC(=O)Nc1ccc(-c2nc3c(c(N4CCOCC4)n2)CN(C(=O)Cc2ccccc2)CC3)cc1 [drawing 633],52
